US20110020312A1, “METHODS FOR TREATMENT OF METABOLIC DISORDERS USING EPIMETABOLIC SHIFTERS, MULTIDIMENSIONAL INTRACELLULAR MOLECULES, OR ENVIRONMENTAL INFLUENCERS” (priority 2009, published 2011)

What was measured:
[1] = tested on: Hif1 alpha; assay: Western blot, Hif1 alpha levels; format: cell-based, human; conditions: for Hif1 alpha Lower Band Normalized Volume: HASMC
Description: The Actin blots were stripped by incubating for 30 minutes with methanol, followed by two 10 minute washes with TBS-T, then 30 minutes of incubation with Stripping buffer at 50 deg C., and followed by two washes with 100 ml or more of TBS-T for 30′ each. The blots were scanned in laser scanner to check for complete stripping. The blots were activated with methanol for 5 seconds, washed with water for 5 minutes, and TBST for 15 minutes. The blots were blocked for 1 hour with 5% blocking reagent in TBS-T at room temperature and then washed 3 times with TBS-T (1×-15′; 2×5′ each) and probed with the primary antibody for Hif 1 alpha, Caspase 3 or PDHB in 5% BSA (at 1:200 by incubation overnight at 4 deg C. with gentle shaking. The primary antibody for Hif 1 alpha (Abcam ab2185; antirabbit) was at 1:500 dilution in 5% BSA. The primary antibody for Caspase 3 (Santacruz sc7272; antirabbit) was at 1:200 dilution in 5% BSA. The primary antibody for Pyruvate Dehydrogenase beta (PDHB) (Novus Biologicals H00005162-M03; antimouse) was at 1:500 dilution in 5% BSA. After incubation with primary antibodies, the membranes were washed 3 times with TBS-T (1×-15′; 2×5′ each) and probed with the secondary antibody (PDHB antimouse; Hif 1a and Caspase 3 antirabbit; 1:10,000 dilution) for 1 h at room temperature. After 1 h of incubation with secondary antibodies, the blots were washed 3 times with TBS-T (1×-15′; 2×5′ each) and then incubated with ECF reagent for 5 minutes and then each blot scanned with 5100 Fuji Laser scanner at 25 uM resolution, 16 bit, green laser, at 400V and at 500 V.
The above blots were stripped by incubating for 30 minutes with methanol, followed by two 10 minute washes with TBS-T, then 30 minutes of incubation with Stripping buffer at 50 deg C., and followed by two washes with 100 ml or more of TBS-T for 30′ each. The blots were activated with methanol for 5 seconds, washed with water for 5 minutes, and TBST for 15 minutes. The blots are blocked for 1 hour with 5% blocking reagent in TBS-T at room temperature and then washed 3 times with TBS-T (1×-15′; 2×5′ each) and probed with the primary antibody for Transaldolase or Hifla in 5% BSA by incubation overnight at 4 deg C. with gentle shaking. The primary antibody for Transaldolase (Abcam ab67467; antimouse) was at 1:500 dilution. The primary antibody for Hifla (Abcam ab2185; antirabbit) was at 1:500 dilution. After incubation with primary antibodies, the membranes were washed 3 times with TBS-T (1×-15′; 2×5′ each) and probed with the secondary antibody (antimouse or antirabbit; 1:10,000 dilution) for 1 h on the orbital tilting shaker at room temperature. After 1 h of incubation with secondary antibodies, the blots were washed 3 times with TBS-T (1×-15′; 2×5′ each) and then incubated with ECF reagent for 5 minutes and then each blot scanned with 5100 Fuji Laser scanner at 25 uM resolution, 16 bit, green laser, at 400 & 500V.

[2] = tested on: Pancreatic Cancer Cells (PaCa2); assay: Real-time PCR Angiogenesis Array; format: cell-based; conditions: 100 uM Q10, various times
Description: Experiments were carried out essentially as described above.

[3] = tested on: SkBr-3 cells; assay: Real-time PCR Apoptosis Array; format: cell-based, human
Description: Changes in mRNA levels were evaluated using real-time PCR quantification to assess mRNA levels in pre-selected subsets containing […] pathway specific targets.
For the interpretation of mRNA results, the genes that were altered in their mRNA transcription by a two-fold level were identified and evaluated. The level of gene transcription to produce mRNA only provides a rough estimate of potential changes in the level of the expressed protein. The skilled artisan will appreciate that each mRNA may have different rates at which it is degraded or its translation inefficiently, thus resulting in differing amounts of protein.
The assay method of RT-PCR was utilized to provide a measure of mRNA level changes to a total of 84 apoptotic pathway related proteins.

COC1=C(OC)C(=O)C(C/C=C(\C)CC/C=C(\C)CC/C=C(\C)CC/C=C(\C)CC/C=C(\C)CC/C=C(\C)CC/C=C(\C)CC/C=C(\C)CC/C=C(\C)CCC=C(C)C)=C(C)C1=O [Q10, Coenzyme Q10]
Hif1 alpha Lower Band Normalized Volume ([1]; 5g48-50): 21664 | Hif1 alpha Lower Band Normalized Volume ([1]; 5g48-100): 19540 | Hif1 alpha Lower Band Normalized Volume ([1]; 22G24-50): 18486 | Hif1 alpha Lower Band Normalized Volume ([1]; 22G24-100): 17919 | Hif1 alpha Lower Band Normalized Volume ([1]; 22G48-50): 17496 | Hif1 alpha Lower Band Normalized Volume ([1]; 22G48-100): 23111 | Hif1 alpha Upper Band Normalized Volume ([1]; HepG2, 5g24-50): 8998 | Hif1 alpha Upper Band Normalized Volume ([1]; HepG2, 5g24-100): 9315 | Hif1 alpha Upper Band Normalized Volume ([1]; HepG2, 5g48-50): 8601 | Hif1 alpha Upper Band Normalized Volume ([1]; HepG2, 5g48-100): 10192 | Hif1 alpha Upper Band Normalized Volume ([1]; HepG2, 22G24-50): 14089 | Hif1 alpha Upper Band Normalized Volume ([1]; HepG2, 22G24-100): 8530 | Hif1 alpha Upper Band Normalized Volume ([1]; HepG2, 22G48-50): 9416 | Hif1 alpha Upper Band Normalized Volume ([1]; HepG2, 22G48-100): 5608 | Hif1 alpha protein levels ([1]; mitochondrial preparations of cancer cells): decreased | Hif1a lower band ([1]; whole cell lysates of normal cells): decrease | genes modulated by Q10 treatment (Angiogenesis arrays) [2]: AKT1, ANGPTL4, ANGPEP, CCL2, CDH4, CXCL1, EDG1, EFNA3, EFNB2, EGF, FGF1, ID3, IL1B, 1L8, KDR, NRP1, PECAM1, PROK2, SERPINF1, SPHK1, STAB1, TGFB1, VEGFA and VEGFB | mRNA's being affected (Apoptosis array) ([3]; Q10 (24 hr)): Bcl2, Bcl2L1, Bcl2L11, Birc6, Bax, Xiap, Hprt1, Apaf1, Ab11, Braf | Bcl-xl mRNA level ([3]; one of the highest): significant up-regulation
